Measurements as given in patent US20260102418A1, “An anti-influenza virus derivative and uses thereof” (Shijiazhuang Discovery Medicine Technology Co., Ltd., priority 2022, published 2026).

tested on: A/Weiss/43 (H1N1) oseltamivir-resistant strain; experiment: Antiviral CPE assay in MDCK, other influenza strains; type: cell-based, influenza A virus (IAV); conditions: Influenza A virus

SMILES | EC50 [nM]
COC(=O)OCOc1c2n(ccc1=O)N([C@@H]1c3ccccc3SCc3c1ccc(F)c3F)[C@@H]1COC3(CC3)CN1C2=O [Compound M42, reference compound] | 2.11 ± 0.72
[2H]C([2H])([2H])OC(=O)OCOc1c2n(ccc1=O)N([C@@H]1c3ccccc3[Se]Cc3c1ccc(F)c3F)[C@@H]1COC3(CC3)CN1C2=O [DS1833] | 1.16 ± 0.37
NC(=O)c1ncn([C@@H]2O[C@H](CO)[C@@H](O)[C@H]2O)n1 [Ribavirin, reference compound] | 30300 ± 4080
O=C1c2c(OCOP(=O)(O)O)c(=O)ccn2N([C@@H]2c3ccccc3[Se]Cc3c2ccc(F)c3F)[C@@H]2COC3(CC3)CN12 [DS14915] | 1.33 ± 0.22
[2H]C([2H])([2H])OC(=O)OCOc1c2n(ccc1=O)N([C@@H]1c3ccccc3SCc3c1ccc(F)c3F)[C@@H]1COC3(CC3)CN1C2=O [DS1837] | 1.45 ± 0.55
